Columns and labels:
[1] = test system: HCT116 human colon cancer cells; experiment: Colony formation assay, HCT116 cells; assay type: cell-based
Method: (§1) NCI/ADR-RES human breast cancer cells (500 cells), HCT116 human colon cancer cells (400 cells) or SF 295 human glioblastoma cells (1000 cells) were plated in 60 mm Petri dishes containing 2.7 ml of medium (modified McCoy's 5a medium containing 10% fetal bovine serum and 100 units/ml penicillin and 100 μg/ml streptomycin). The cells were incubated in a CO2 incubator at 37° C. for 5 hours for attachment to the bottom of Petri dishes. Compounds were prepared fresh in medium at ten times the final concentration, and then 0.3 ml of this stock solution was added to the 2.7 ml of medium in the dish. The cells were then incubated with compounds for 72 hours at 37° C. At the end of incubation, the compound-containing media were decanted, the dishes were rinsed with 4 ml of Hank's Balance Salt Solution (HBSS), 5 ml of fresh medium was added, and the dishes were returned to the incubator for colony formation. The cell colonies were counted using a colony counter after incubation for 14 days for NCI/ADR-RES cells and 10 days for HCT116 cells and SF 295 cells. Cell survival was calculated and the IC50 values (the drug concentration producing 50% inhibition of colony formation) were determined for each tested compound.
Four hundred HCT116 cells were plated in 60 mm Petri dishes containing 2.7 ml of medium (modified McCoy's 5a medium containing 10% fetal bovine serum and 100 units/ml penicillin and 100 μg/ml streptomycin). The cells were incubated in a CO2 incubator at 37° C. for 5 hours for attachment to the bottom of Petri dishes. Compounds were prepared fresh in medium at ten times the final concentration, and then 0.3 ml of this stock solution was added to the 2.7 ml of medium in the dish. The cells were then incubated with drugs for 72 hours at 37° C. At the end of incubation the compound-containing media were decanted, the dishes were rinsed with 4 ml of Hank's Balance Salt Solution (HBSS), 5 ml of fresh medium was added, and the dishes were returned to the incubator for colony formation. HCT116 cell colonies were counted using a colony counter after […] of incubation. Cell survival was calculated and IC50 values were determined for each compound tested.

[2] = test system: SF 295 human glioblastoma cells; experiment: Colony formation assay, SF 295 cells; assay type: cell-based
Method: as §1
One thousand SF 295 cells were plated in 60 mm Petri dishes containing 2.7 ml of medium (modified McCoy's 5a medium containing 10% fetal bovine serum and 100 units/ml penicillin and 100 μg/ml streptomycin). The cells were incubated in a CO2 incubator at 37° C. for 5 hours for attachment to the bottom of Petri dishes. Compounds were prepared fresh in medium at ten times the final concentration, and then 0.3 ml of this stock solution was added to the 2.7 ml of medium in the dish. The cells were then incubated with the compounds for 72 hours at 37° C. At the end of incubation, the compound-containing media were decanted, the dishes were rinsed with 4 ml of Hank's Balance Salt Solution (HBSS), 5 ml of fresh medium was added, and the dishes were returned to the incubator for colony formation. After incubation for 10 days, the cell colonies were counted using a colony counter. Cell survival was calculated and the values of IC50 were determined for each compound tested.

c1ccc2c(Nc3ccc(Oc4ccc(Nc5c6ccccc6nc6ccccc56)cc4)cc3)c3ccccc3nc2c1 [Compound D11B]
IC50 ([1]; Homo sapiens, HCT-116, HCT116 cells, 72 hours with compound, colonies counted after 10 days, read-out: IC50 (nM) Colon Cancer): 167 nM | IC50 values lower for colon cells as compared to breast cancer cells ([1]; colon vs breast cancer cells): approximately 10 fold | IC50 ([2]; Homo sapiens, SF 295 cells, 72 hours with compound, colonies counted after 10 days, read-out: IC50 (nM) Glioblastoma): 177 nM | IC50 values lower for glioblastoma cells as compared to breast cancer cells ([2]; glioblastoma vs breast cancer cells): approximately 10 fold

Reference: US8518965B2, “Compositions and methods for treating cancer” (Trustees of Dartmouth College, priority 2009, dated 2013)
